The values that follow come from patent publication US5436254A, “Carbostyril derivatives” (Otsuka Pharmaceutical Company, Ltd., priority 1989, dated 1995).

For the first experiment, the target named is V1 receptor (Rattus norvegicus, UniProt P30560). The experiment can be described thus: biochemical. The experiment is classed as binding.
V1 receptor, sequence (P30560 whole entry): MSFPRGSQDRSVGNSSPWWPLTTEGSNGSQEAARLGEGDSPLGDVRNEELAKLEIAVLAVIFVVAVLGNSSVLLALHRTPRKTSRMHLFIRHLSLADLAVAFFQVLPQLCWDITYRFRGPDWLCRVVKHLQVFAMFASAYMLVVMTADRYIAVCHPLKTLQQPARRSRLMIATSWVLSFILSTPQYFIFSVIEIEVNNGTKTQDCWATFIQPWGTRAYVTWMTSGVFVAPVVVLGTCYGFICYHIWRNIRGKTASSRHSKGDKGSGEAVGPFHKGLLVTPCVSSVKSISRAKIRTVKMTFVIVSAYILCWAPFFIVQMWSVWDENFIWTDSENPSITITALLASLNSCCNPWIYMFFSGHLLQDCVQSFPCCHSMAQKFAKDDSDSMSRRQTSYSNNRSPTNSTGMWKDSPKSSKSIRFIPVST
Settings: not given
`NC(=O)CCCCOc1ccc(C(=O)N2CCC(N3C(=O)CCc4ccccc43)CC2)cc1` [Example 3, 1-{1-[4-(4-Carbamoylbutoxy)benzoyl]-4-piperidinyl}-3,4-dihydrocarbostyril] registered an IC50 of 330 nM. On the same count and under the same terms, the same measure for `NC(=O)CNC(=O)CCCCOc1ccc(C(=O)N2CCC(N3C(=O)CCc4ccccc43)CC2)cc1` [Example 4, 1-{1-[4-(4-Carbamoylmethylaminocarbonylbutoxy)benzoyl]-4-piperidinyl}-3,4-dihydrocarbostyril]: 240 nM; for `N#CCCCOc1ccc(C(=O)N2CCC(N3C(=O)CCc4ccccc43)CC2)cc1` [Example 5, 1-{1-[4-(3-Cyanopropoxy)benzoyl]-4-piperidinyl}-3,4-dihydrocarbostyril]: 490 nM. Same read-out and setting: the same measure for `N=C(N)CCCOc1ccc(C(=O)N2CCC(N3C(=O)CCc4ccccc43)CC2)cc1` [Example 6, 1-{1-[4-(3-Amidinopropoxy)benzoyl]-4-piperidinyl}-3,4-dihydrocarbostyril]: 470 nM; for `NC(=O)CCCOc1ccc(C(=O)N2CCC(N3C(=O)CCc4ccccc43)CC2)cc1` [Example 7, 1-{1-[4-(3-Carbamoylpropoxy)benzoyl]-4-piperidinyl}-3,4-dihydrocarbostyril]: 310 nM; for `CCOC(=O)CNC(=O)CCCOc1ccc(C(=O)N2CCC(N3C(=O)CCc4ccccc43)CC2)cc1` [Example 8, 1-{1-[4-(3-Ethoxycarbonylmethylaminocarbonylpropoxy)benzoyl]-4-piperidinyl}-3,4-dihydrocarbostyril]: 300 nM. Regarding `NC(=O)CNC(=O)CCCOc1ccc(C(=O)N2CCC(N3C(=O)CCc4ccccc43)CC2)cc1` [Example 9, 1-{1-[4-(3-Carbamoylmethylaminocarbonylpropoxy)benzoyl]-4-piperidinyl}-3,4-dihydrocarbostyril], half-maximal inhibition (IC50) required 350 nM. `COC(=O)[C@H](CO)NC(=O)CCCOc1ccc(C(=O)N2CCC(N3C(=O)CCc4ccccc43)CC2)cc1` [Example 10, Methyl N-[4-{4-[4-(1,2,3,4-tetrahydro-2-oxo-1-quinolyl)-1-piperidinylcarbonyl]phenoxy}]butanoyl-L-serinate] displayed a half-maximal inhibitory concentration (IC50) of 320 nM. Turning to `COC(=O)[C@H](C)NC(=O)CCCOc1ccc(C(=O)N2CCC(N3C(=O)CCc4ccccc43)CC2)cc1` [Example 11, Methyl N-[4-{4-[4-(1,2,3,4-tetrahydro-2-oxo-1-quinolyl)-1-piperidinylcarbonyl]phenoxy}]butanoyl-L-alanate], the IC50 is 300 nM.

Turning to `NC(=O)CCCCCOc1ccc(C(=O)N2CCC(N3C(=O)CCc4ccccc43)CC2)cc1` [Example 12, 1-{1-[4-(5-Carbamoylpentyloxy)benzoyl]-4-piperidinyl}-3,4-dihydrocarbostyril], the IC50 worked out at 230 nM. `CCOC(=O)CNC(=O)CCCCCOc1ccc(C(=O)N2CCC(N3C(=O)CCc4ccccc43)CC2)cc1` [Example 13, 1-{1-[4-(5-Ethoxycarbonylmethylaminocarbonylpentyloxy)benzoyl]-4-piperidinyl}-3,4-dihydrocarbostyril]: the IC50 came to 280 nM.

The compound `NC(=O)CNC(=O)CCCCCOc1ccc(C(=O)N2CCC(N3C(=O)CCc4ccccc43)CC2)cc1` [Example 14, 1-{1-[4-(5-Carbamoylmethylaminocarbonylpentyloxy)benzoyl]-4-piperidinyl}-3,4-dihydrocarbostyril] yielded an IC50 of 160 nM. Take `NC(=O)CCCCCCCOc1ccc(C(=O)N2CCC(N3C(=O)CCc4ccccc43)CC2)cc1` [Example 15, 1-{1-[4-(7-Carbamoylheptyloxy)benzoyl]-4-piperidinyl}-3,4-dihydrocarbostyril]: it took 260 nM to reach half-maximal inhibition (IC50). The same measure, in the same setting: the same measure for `NC(=O)CNC(=O)CCCCCCCOc1ccc(C(=O)N2CCC(N3C(=O)CCc4ccccc43)CC2)cc1` [Example 16, 1-(1-[4-(7-Carbamoylmethylaminocarbonylheptyloxy)benzoyl]-4-piperidinyl}-3,4-dihydrocarbostyril]: 150 nM. For `CN(C)CCCOc1ccc(C(=O)N2CCC(N3C(=O)CCc4ccccc43)CC2)cc1` [Example 17, 1-{1-[4-(3-Dimethylaminopropoxy)benzoyl]-4-piperidinyl}-3,4-dihydrocarbostyril], the IC50 turned out to be 430 nM. As to `O=C(c1ccc(OCCCNCc2ccccc2)cc1)N1CCC(N2C(=O)CCc3ccccc32)CC1` [Example 18, 1-{1-[4-(3-Benzylaminopropoxy)benzoyl]-4-piperidinyl}-3,4-dihydrocarbostyril], the IC50 is 270 nM. In turn, `CS(=O)(=O)NCCCOc1ccc(C(=O)N2CCC(N3C(=O)CCc4ccccc43)CC2)cc1` [Example 22, 1-{1-[4-(3-Methylsulfonylaminopropoxy)benzoyl]-4-piperidinyl}-3,4-dihydrocarbostyril] had an IC50 of 340 nM. Compound `CNC(=O)NCCCOc1ccc(C(=O)N2CCC(N3C(=O)CCc4ccccc43)CC2)cc1` [Example 23, 1-[1-{4-[3-(3-Methylureido)propoxy]benzoyl}-4-piperidinyl]-3,4-dihydrocarbostyril] showed an IC50 of 240 nM. The same measure, in the same setting: to `CC(=O)NCC(=O)NCCCCOc1ccc(C(=O)N2CCC(N3C(=O)CCc4ccccc43)CC2)cc1` [Example 25] belongs 240 nM; to `COC(=O)NCCCCOc1ccc(C(=O)N2CCC(N3C(=O)CCc4ccccc43)CC2)cc1` [Example 27, 1-{1-[4-(4-Methoxycarbonylaminobutoxy)benzoyl]-4-piperidinyl}-3,4-dihydrocarbostyril], 270 nM.

For the compound `CS(=O)(=O)NCCCCOc1ccc(C(=O)N2CCC(N3C(=O)CCc4ccccc43)CC2)cc1` [Example 28, 1-{1-[4-(4-Methylsulfonylaminobutoxy)benzoyl]-4-piperidinyl}-3,4-dihydrocarbostyril], the concentration for half-maximal inhibition (IC50) worked out at 160 nM.

In turn, `CNCC(O)CCCOc1ccc(C(=O)N2CCC(N3C(=O)CCc4ccccc43)CC2)cc1` (stereo not shown) [Example 30, 1-{1-[4-(5-Methylamino-4-hydroxypentyloxy)benzoyl]-4-piperidinyl}-3,4-dihydrocarbostyril] gave a half-maximal inhibitory concentration (IC50) of 330 nM. `O=C(c1ccc(OCCCO)cc1)N1CCC(N2C(=O)CCc3ccccc32)CC1` [Example 32, 1-{1-[4-(3-Hydroxypropoxy)benzoyl]-4-piperidinyl}-3,4-dihydrocarbostyril] gave an IC50 of 460 nM.

`CC(=O)OCCCOc1ccc(C(=O)N2CCC(N3C(=O)CCc4ccccc43)CC2)cc1` [Example 33, 1-{1-[4-(3-Acetoxypropoxy)benzoyl]-4-piperidinyl}-3,4-dihydrocarbostyril] displayed an IC50 of 450 nM. On the same count and under the same terms, to `NC(=O)OCCCOc1ccc(C(=O)N2CCC(N3C(=O)CCc4ccccc43)CC2)cc1` [Example 35, 1-{1-[4-(3-Carbamoyloxypropoxy)benzoyl]-4-piperidinyl}-3,4-dihydrocarbostyril] belongs 150 nM.

With `O=C(c1ccc(OCCCCO)cc1)N1CCC(N2C(=O)CCc3ccccc32)CC1` [Example 36, 1-{1-[4-(4-Hydroxybutoxy)benzoyl]-4-piperidinyl}-3,4-dihydrocarbostyril], the midpoint of inhibition, the IC50, lay at 370 nM. Consider `CC(=O)OCCCCOc1ccc(C(=O)N2CCC(N3C(=O)CCc4ccccc43)CC2)cc1` [Example 37, 1-{1-[4-(4-Acetoxybutoxy)benzoyl]-4-piperidinyl}-3,4-dihydrocarbostyril], for which the IC50 was found to be 360 nM. In the case of `NC(=O)OCCCCOc1ccc(C(=O)N2CCC(N3C(=O)CCc4ccccc43)CC2)cc1` [Example 38, 1-{1-[4-(4-Carbamoyloxybutoxy)benzoyl]-4-piperidinyl}-3,4-dihydrocarbostyril], the IC50 came to 270 nM. Consider `CC(=O)OCCCCCOc1ccc(C(=O)N2CCC(N3C(=O)CCc4ccccc43)CC2)cc1` [Example 39, 1-{1-[4-(5-Acetoxypentyloxy)benzoyl]-4-piperidinyl}-3,4-dihydrocarbostyril], for which inhibition was half-maximal at 150 nM (IC50). Compound `C=CCOc1ccc(C(=O)N2CCC(N3C(=O)CCc4ccccc43)CC2)cc1` [Example 44, 1-[1-(4-Allyloxybenzoyl)-4-piperidinyl]-3,4-dihydrocarbostyril] yielded an IC50 of 300 nM. The same measure, in the same setting: the same measure for `O=C(c1ccc(Oc2ccccc2)cc1)N1CCC(N2C(=O)CCc3ccccc32)CC1` [Example 45, 1-[1-(4-Phenyloxybenzoyl)-4-piperidinyl]-3,4-dihydrocarbostyril]: 200 nM. As for `CNc1ccc(C(=O)N2CCC(N3C(=O)CCc4ccccc43)CC2)c(OC)c1` [Example 48, 1-[1-(2-Methoxy-4-methylaminobenzoyl)-4-piperidinyl]-3,4-dihydrocarbostyril], the IC50 came to 400 nM. `COc1cc(N(C)C)ccc1C(=O)N1CCC(N2C(=O)CCc3ccccc32)CC1` [Example 49, 1-[1-(2-Methoxy-4-dimethylaminobenzoyl)-4-piperidinyl]-3,4-dihydrocarbostyril] registered an IC50 of 200 nM.

Regarding `CN(C)c1ccc(C(=O)N2CCC(N3C(=O)CCc4ccccc43)CC2)c(N(C)C)c1` [Example 50, 1-{1-[2,4-Bis(N,N-dimethylamino)benzoyl]-4-piperidinyl}-3,4-dihydrocarbostyril], the IC50 worked out at 400 nM. Same read-out and setting: to `COc1ccc(C(=O)N2CCC(N3C(=O)CCc4ccccc43)CC2)c(N2CCOC2=O)c1` [Example 51, 1-{1-[2-(2-Oxooxazolydine-3-yl)-4-methoxybenzoyl]-4-piperidinyl}-3,4-dihydrocarbostyril] belongs 490 nM; to `CCOc1ccc(C(=O)N2CCC(N3C(=O)CCc4ccccc43)CC2)c(OC)c1` [Example 52, 1-[1-(2-Methoxy-4-ethoxybenzoyl)-4-piperidinyl]-3,4-dihydrocarbostyril], 80 nM; to `COc1cc(SC)ccc1C(=O)N1CCC(N2C(=O)CCc3ccccc32)CC1` [Example 53, 1-[1-(2-Methoxy-4-methylthiobenzoyl)-4-piperidinyl]-3,4-dihydrocarbostyril], 80 nM.

Staying with this experiment, now noted: [H]3-Arg-vasopressin 2×10^-10 M, rat liver plasma membrane, 37° C., 10 minutes, pH 8.0; read-out: IC50.
Take “1-[1-(4-Propargylbenzoyl)-4-piperidinyl]-3,4-dihydrocarbostyril [Example 96]”: the IC50 was 600 nM. The same measure, in the same setting: the same measure for “1-{1-[4-(6-(1-Methyl-5-oxo-3-morpholino)hexyloxy)benzoyl]-4-piperidinyl}-3,4-dihydrocarbostyril [Example 215]”: 170 nM. Same read-out and setting: the same measure for “1-{1-[4-[4-(Benzimidazol-1-yl)thiobutoxy]benzoyl]-4-piperidinyl}-3,4-dihydrocarbostyril [Example 164]”: 780 nM.
